“And” between values parts separate entries of the source, which are not always exact repeats. Equal values may be shown once.
Assays:
[1] = Hematological and hepatic parameters, 2-week repeated oral dosing; type: in vivo; conditions: rats
[2] = Liver microsomal stability assay, human; type: in vitro ADME; conditions: for Metabolic stability, % remaining of RK-701: Human
Method: [Human/Rat] Liver microsome analyses (human, rat) were performed in triplicate by the Sumika Chemical Analysis Service (SCAS) according to the standard protocols. […] [Dog/Monkey] Liver microsome analyses (dog, monkey) were performed in duplicate by RIKEN according to the same protocols as SCAS.

[3] = RK-701 10 mg/kg for two weeks, individual animals 1-5, 10 mg/kg
[4] = RK-701 30 mg/kg for two weeks, individual animals 1-5, 30 mg/kg
[5] = RK-701 100 mg/kg for two weeks, individual animals 1-5, 100 mg/kg

## Cc1c(C(=O)NC(CCC2CC2)C(=O)Nc2ccc(C#N)cc2)[nH]c2c1C(=O)CC(C)(C)C2 (stereo not drawn) [RK-701]
[1]; [3]
  ALB: 3.3 g/dL and 3.6 g/dL and 3.5 g/dL and 3.9 g/dL
  ALP: 498 IU/L and 658 IU/L and 651 IU/L and 305 IU/L and 323 IU/L
  ALT: 35 IU/L and 24 IU/L and 23 IU/L and 29 IU/L and 31 IU/L
  AST: 65 IU/L and 68 IU/L and 63 IU/L and 58 IU/L
  EOS: 0.8 x 10^2 cells/μL and 0.5 x 10^2 cells/μL and 0.6 x 10^2 cells/μL
  HCT: 43.6% and 43.5% and 41.3% and 46.1% and 43.9%
  HGB: 15.1 g/dL and 14.9 g/dL and 14.2 g/dL and 16.2 g/dL and 15.2 g/dL
  LUC: 0.5 x 10^2 cells/μL and 0.3 x 10^2 cells/μL and 0.2 x 10^2 cells/μL and 0.6 x 10^2 cells/μL
  Lymph: 60.7 x 10^2 cells/μL and 48.8 x 10^2 cells/μL and 34.7 x 10^2 cells/μL and 52.6 x 10^2 cells/μL and 60.4 x 10^2 cells/μL
  MCH: 20.6 pg and 20.7 pg and 19.3 pg and 20.9 pg and 20.5 pg
  MCHC: 34.6 g/dL and 34.4 g/dL and 35.1 g/dL and 34.7 g/dL
  MCV: 59.5 fL and 60.2 fL and 56.2 fL and 59.6 fL and 59.1 fL
  MONO: 1 x 10^2 cells/μL and 0.9 x 10^2 cells/μL and 0.6 x 10^2 cells/μL and 1.2 x 10^2 cells/μL
  NEUT: 8.2 x 10^2 cells/μL and 4.4 x 10^2 cells/μL and 6.1 x 10^2 cells/μL and 5.2 x 10^2 cells/μL and 8.1 x 10^2 cells/μL
  PL: 141 mg/dL and 106 mg/dL and 124 mg/dL and 99 mg/dL and 133 mg/dL
  PLT: 127.6 x 10^4 cells/μL and 123.4 x 10^4 cells/μL and 117.1 x 10^4 cells/μL and 123.6 x 10^4 cells/μL and 146.5 x 10^4 cells/μL
  RBC: 732 x 10^4 cells/μL and 722 x 10^4 cells/μL and 735 x 10^4 cells/μL and 773 x 10^4 cells/μL and 743 x 10^4 cells/μL
  Retic: 223.8 x 10^9 cells/L and 153 x 10^9 cells/L and 208.3 x 10^9 cells/L and 171.7 x 10^9 cells/L and 194.5 x 10^9 cells/L
  T-CHO: 87 mg/dL and 57 mg/dL and 73 mg/dL and 64 mg/dL
  TG: 26 mg/dL and 11 mg/dL and 19 mg/dL and 14 mg/dL and 48 mg/dL
  TP: 5.8 g/dL and 6.1 g/dL and 5.9 g/dL and 6.4 g/dL
  WBC: 71.3 x 10^2 cells/μL and 55 x 10^2 cells/μL and 42.1 x 10^2 cells/μL and 59.6 x 10^2 cells/μL and 70.9 x 10^2 cells/μL
[1]; [4]
  ALB: 3.3 g/dL and 3.6 g/dL and 3.5 g/dL
  ALP: 418 IU/L and 310 IU/L and 628 IU/L and 586 IU/L and 615 IU/L
  ALT: 28 IU/L and 21 IU/L and 29 IU/L and 25 IU/L
  AST: 71 IU/L and 66 IU/L and 59 IU/L and 54 IU/L and 70 IU/L
  EOS: 0.4 x 10^2 cells/μL and 0.5 x 10^2 cells/μL and 0.7 x 10^2 cells/μL and 0.3 x 10^2 cells/μL
  HCT: 41.9% and 44.7% and 43.2% and 41.2% and 41.8%
  HGB: 13.9 g/dL and 15.2 g/dL and 14.7 g/dL and 14.2 g/dL and 14.4 g/dL
  LUC: 0.5 x 10^2 cells/μL and 0.2 x 10^2 cells/μL and 0.6 x 10^2 cells/μL and 0.4 x 10^2 cells/μL
  Lymph: 67.9 x 10^2 cells/μL and 38.8 x 10^2 cells/μL and 53.8 x 10^2 cells/μL and 52 x 10^2 cells/μL and 52.5 x 10^2 cells/μL
  MCH: 18.8 pg and 19.5 pg and 21.3 pg and 20.8 pg
  MCHC: 33.3 g/dL and 33.9 g/dL and 34.1 g/dL and 34.4 g/dL
  MCV: 56.4 fL and 57.4 fL and 62.5 fL and 56.7 fL and 60.3 fL
  MONO: 1 x 10^2 cells/μL and 0.8 x 10^2 cells/μL and 0.9 x 10^2 cells/μL
  NEUT: 5.1 x 10^2 cells/μL and 8.7 x 10^2 cells/μL and 4.3 x 10^2 cells/μL and 6.5 x 10^2 cells/μL and 8.9 x 10^2 cells/μL
  PL: 116 mg/dL and 127 mg/dL and 128 mg/dL and 100 mg/dL and 113 mg/dL
  PLT: 120.9 x 10^4 cells/μL and 129.5 x 10^4 cells/μL and 130.8 x 10^4 cells/μL and 134.3 x 10^4 cells/μL and 95.6 x 10^4 cells/μL
  RBC: 742 x 10^4 cells/μL and 779 x 10^4 cells/μL and 692 x 10^4 cells/μL and 726 x 10^4 cells/μL and 693 x 10^4 cells/μL
  Retic: 276.8 x 10^9 cells/L and 221.1 x 10^9 cells/L and 186.9 x 10^9 cells/L and 199.2 x 10^9 cells/L and 253.8 x 10^9 cells/L
  T-CHO: 63 mg/dL and 69 mg/dL and 62 mg/dL and 58 mg/dL and 68 mg/dL
  TG: 16 mg/dL and 19 mg/dL and 25 mg/dL and 12 mg/dL and 11 mg/dL
  TP: 5.7 g/dL and 6.1 g/dL and 6 g/dL and 5.8 g/dL
  WBC: 74.9 x 10^2 cells/μL and 49.1 x 10^2 cells/μL and 60.2 x 10^2 cells/μL and 60.7 x 10^2 cells/μL and 63.2 x 10^2 cells/μL
[1]; [5]
  ALB: 3.4 g/dL and 3.3 g/dL and 3.2 g/dL and 3.5 g/dL
  ALP: 450 IU/L and 547 IU/L and 566 IU/L and 866 IU/L and 399 IU/L
  ALT: 37 IU/L and 26 IU/L and 28 IU/L and 29 IU/L and 25 IU/L
  AST: 63 IU/L and 59 IU/L and 68 IU/L and 70 IU/L and 58 IU/L
  EOS: 0.3 x 10^2 cells/μL and 0.6 x 10^2 cells/μL and 0.8 x 10^2 cells/μL and 0.7 x 10^2 cells/μL
  HCT: 43.3% and 44.1% and 41.3% and 42.5% and 43.5%
  HGB: 14.8 g/dL and 15 g/dL and 14.4 g/dL and 14.6 g/dL
  LUC: 0.4 x 10^2 cells/μL and 0.5 x 10^2 cells/μL and 0.3 x 10^2 cells/μL and 0.9 x 10^2 cells/μL
  Lymph: 61.6 x 10^2 cells/μL and 55.7 x 10^2 cells/μL and 66.9 x 10^2 cells/μL and 49.9 x 10^2 cells/μL and 88.7 x 10^2 cells/μL
  MCH: 20.2 pg and 20.4 pg and 20.6 pg and 20.1 pg
  MCHC: 34.3 g/dL and 34 g/dL and 34.8 g/dL and 34.4 g/dL
  MCV: 59 fL and 60.2 fL and 59.1 fL and 58.3 fL and 58.6 fL
  MONO: 1.3 x 10^2 cells/μL and 0.7 x 10^2 cells/μL and 1.6 x 10^2 cells/μL and 1 x 10^2 cells/μL and 1.4 x 10^2 cells/μL
  NEUT: 7.8 x 10^2 cells/μL and 2.7 x 10^2 cells/μL and 9.7 x 10^2 cells/μL and 9.5 x 10^2 cells/μL and 9.3 x 10^2 cells/μL
  PL: 153 mg/dL and 118 mg/dL and 132 mg/dL and 110 mg/dL and 173 mg/dL
  PLT: 110.2 x 10^4 cells/μL and 121.4 x 10^4 cells/μL and 96 x 10^4 cells/μL and 122.9 x 10^4 cells/μL and 114.3 x 10^4 cells/μL
  RBC: 733 x 10^4 cells/μL and 700 x 10^4 cells/μL and 729 x 10^4 cells/μL and 744 x 10^4 cells/μL
  Retic: 130.2 x 10^9 cells/L and 149.9 x 10^9 cells/L and 250.7 x 10^9 cells/L and 185.7 x 10^9 cells/L and 177.3 x 10^9 cells/L
  T-CHO: 94 mg/dL and 67 mg/dL and 91 mg/dL and 72 mg/dL and 116 mg/dL
  TG: 26 mg/dL and 19 mg/dL and 9 mg/dL and 8 mg/dL and 32 mg/dL
  TP: 5.6 g/dL and 5.8 g/dL and 5.9 g/dL and 5.7 g/dL and 6.2 g/dL
  WBC: 71.5 x 10^2 cells/μL and 60.2 x 10^2 cells/μL and 79.6 x 10^2 cells/μL and 61.2 x 10^2 cells/μL and 101.3 x 10^2 cells/μL
[1]; oral, up to 100 mg/kg, two weeks
  effect on hematological and hepatic parameters: no serious effect
[1]; two weeks, 10 mg/kg
  ALB: 3.6 ± 0.2 g/dL
  ALP: 487 ± 170 IU/L
  ALT: 28 ± 5 IU/L
  AST: 64 ± 4 IU/L
  EOS: 0.6 ± 0.1 x 102 cells/μL
  HCT: 43.7± 1.7%
  HGB: 15.1 ± 0.7 g/dL
  LUC: 0.4 ± 0.2 x 102 cells/μL
  Lymph: 51.4 ± 10.7 x 102 cells/μL
  MCH: 20.4 ± 0.6 pg
  MCHC: 34.6 ± 0.3 g/dL
  MCV: 58.9 ± 1.6 fL
  MONO: 0.9 ± 0.2 x 102 cells/μL
  NEUT: 6.4 ± 1.7 x 102 cells/μL
  PL: 121 ± 18 mg/dL
  RBC: 741 ± 19 x 104 cells/μL
  Retic: 190 ± 28.3 x 109 cells/L
  T-CHO: 68 ± 13 mg/dL
  TG: 24 ± 15 mg/dL
  TP: 6.0 ± 0.3 g/dL
  WBC: 59.8 ± 12.2 x 102 cells/μL
[1]; two weeks, 30 mg/kg
  ALB: 3.5 ± 0.2 g/dL
  ALP: 511 ± 141 IU/L
  ALT: 26 ± 3 IU/L
  AST: 64 ± 7 IU/L
  EOS: 0.5 ± 0.1 x 102 cells/μL
  HCT: 42.6 ± 1.4%
  HGB: 14.5 ± 0.5 g/dL
  LUC: 0.4 ± 0.1 x 102 cells/μL
  Lymph: 53.0 ± 10.3 x 102 cells/μL
  MCH: 20.0 ± 1.0 pg
  MCHC: 34.0 ± 0.5 g/dL
  MCV: 58.7 ± 2.6 fL
  MONO: 0.9 ± 0.1 x 102 cells/μL
  NEUT: 6.7 ± 2.1 x 102 cells/μL
  PLT: 122 ±15.7 x 104 cells/μL
  RBC: 726 ± 36 x 104 cells/μL
  Retic: 228 ± 37.5 x 109 cells/L
  T-CHO: 64 ± 5 mg/dL
  TG: 17 ± 6 mg/dL
  TP: 5.9 ± 0.2 g/dL
  WBC: 61.6 ± 9.2 x 102 cells/μL
[1]; two weeks, 100 mg/kg
  ALB: 3.4 ± 0.1 g/dL
  ALP: 566 ± 181 IU/L
  ALT: 29 ± 5 IU/L
  AST: 64 ± 5 IU/L
  EOS: 0.6 ± 0.2 x 102 cells/μL
  HCT: 42.9 ± 1.1%
  HGB: 14.8 ± 0.3 g/dL
  LUC: 0.5 ± 0.2 x 102 cells/μL
  Lymph: 64.6 ± 14.9 x 102 cells/μL
  MCH: 20.3 ± 0.2 pg
  MCHC: 34.4 ± 0.3 g/dL
  MCV: 59.0 ± 0.7 fL
  MONO: 1.2 ± 0.4 x 102 cells/μL
  NEUT: 7.8 ± 2.9 x 102 cells/μL
  PL: 137 ± 26 mg/dL
  Retic: 179 ± 45.9 x 109 cells/L
  T-CHO: 88 ± 20 mg/dL
  TG: 19 ± 10 mg/dL
  TP: 5.8 ± 0.2 g/dL
  WBC: 74.8 ± 16.8 x 102 cells/μL
[2]; Time 5, replicate values
  Metabolic stability, % remaining of RK-701: 103.5% and 98.1%
[2]; Time 10, replicate values
  Metabolic stability, % remaining of RK-701: 104.9% and 98.1%
[2]; Time 20, replicate values
  Metabolic stability, % remaining of RK-701: 89.6% and 79.6%
[2]; Time 30, replicate values
  Metabolic stability, % remaining of RK-701: 78.5% and 70.7%
[2]; Time 60, replicate values
  Metabolic stability, % remaining of RK-701: 68.6% and 60.8%
[2]; human, liver microsomes, Metabolic stability, % remaining of RK-701, Human, Time 5, replicate values
  remaining at 5 min, 1 µM: 93.1%
[2]; human, liver microsomes, Metabolic stability, % remaining of RK-701, Human, Time 10, replicate values
  remaining at 10 min, 1 µM: 95.5%
[2]; human, liver microsomes, Metabolic stability, % remaining of RK-701, Human, Time 20, replicate values
  remaining at 20 min, 1 µM: 80.5%
[2]; human, liver microsomes, Metabolic stability, % remaining of RK-701, Human, Time 30, replicate values
  remaining at 30 min, 1 µM: 70.4%
[2]; human, liver microsomes, Metabolic stability, % remaining of RK-701, Human, Time 60, replicate values
  remaining at 60 min, 1 µM: 62.1%
[2]; human, liver microsomes, read-out: Metabolic stability in liver microsomes CLint
  microsomal CLint at 1 μM: 19 µL/min/mg
[2]; various species
  stability in liver microsomes: most stable in human liver microsomes
